Tests used:
HCT-116 cells [1] = experiment: MTT assay of cancer cell viability; conditions: for attenuating cancer cells proliferation (in words) / effect on cancer cell survivability (in words) / comparison among the five conjugates in decreasing cancer cells proliferation: HCT-116; for dose dependence of effect on cancer cells viability: HCT-116, MTT staining; for comparison among the five conjugates in decreasing cancer cells proliferation: versus Conj. 1, Conj. 2 and Conj. 5
Method: CANCER CELL TREATMENTS: Human colorectal carcinoma cells (HCT-116) cells were grown according to a method described in Khan, F. A.; Akhtar, S.; Almohazey, D.; Alomari, M.; Almofty, S. A.; Eliassari, A. “Fluorescent magnetic submicronic polymer (FMSP) nanoparticles induce cell death in human colorectal carcinoma cells” Artif Artif. Cells, Nanomed., Biotechnol. 2018, (doi: 10.1080/21691401.2018.1491476). HCT-116 cells were grown in Dulbecco Modified Eagle Medium (DMEM), 10% fetal bovine serum, L-glutamine, selenium chloride, penicillin, and streptomycin. The cells were cultured in a CO2 incubator (Heracell 150i, Thermo-scientific, USA) at 37° C. under 5% CO2 for 48 to 72 hours. Confluenced cells were seeded into 96-well cell plates and, once the cells became 80% confluenced, the cancer cells were treated with different concentrations ([…]) of Conj. 1, Conj. 2, Conj. 3, Conj. 4, Conj. 5 respectively. […] Each sample was taken in triplicate to obtain a statistical analysis.
CANCER CELLS VIABILITY BY MTT ASSAY: To examine effect of Conj. 1, Conj. 2, Conj. 3, Conj. 4, Conj. 5 on cancer cells, a 3-(4,5-dimethylthiazol-2-yl)-2,5-diphenyltetrazolium bromide (MTT) assay was conducted on the cells. The cancer cells were seeded at 6×10^4 cells/mL concentration in 96-well culture plates containing DMEM, 10% Fetal bovine serum, penicillin, and streptomycin and were incubated in CO2 incubator until the cells were 80% confluenced. The cancer cells were then treated with Conj. 1, Conj. 2, Conj. 3, Conj. 4, Conj. 5 at concentrations of 1.3, 3.26, and 6.5 mg/mL, whereby no conjugate was added in the control groups. A 5.0 mg/mL MTT solution was added into each well, and the cells were again incubated for 4 hours in the CO2 incubator and finally media was changed with the addition of DMSO. The samples were then measured using an ELISA plate reader (Biotek Instruments, USA) at wavelength 570 nm.
The following formula was used to calculate percentage of cell viability: % of Cell viability=[Optical density (O.D) of Conj. 1, Conj. 2, Conj. 3, Conj. 4, or Conj. 5 cells]/[Optical density (O.D) of control cells]×100.
1, Conj. 2, Conj. 3, Conj. 4, Conj. 5 treated groups were calculated. All statistical analyses were completed with GraphPad Prism 6 (GraphPad Software). The difference between control and Conj. 1, Conj. 2, Conj. 3, Conj. 4, Conj. 5 groups by a one-way ANOVA test (*p<0.05, **p<0.01; ***p<0.001) was taken as statistically significant.

HCT-116 cells [2] = experiment: Cancer cell morphology by inverted microscope; type: cell-based, human; conditions: 48 hours, 200x magnification
From the text: Cells, Nanomed., Biotechnol. 2018, (doi: 10.1080/21691401.2018.1491476). […] 1, Conj. 2, Conj. 3, Conj. 4, Conj. 5 respectively.
CANCER CELL MORPHOLOGY: After the treating the HTC-116 cells with Conj. 1, Conj. 2, Conj. 3, Conj. 4, Conj. 5, the cells were observed using an inverted microscope (TS100F Eclipse, Nikon, Japan) to evaluate the anatomical and morphological changes.

Substance | attenuating cancer cells proliferation (in words) (HCT-116 cells [1]) | effect on cancer cell survivability (in words) (HCT-116 cells [1]) | dose dependence of effect on cancer cells viability (HCT-116 cells [1]) | cancer cell morphology (HCT-116 cells [2]; HCT-116, 1.3 mg/mL) | cancer cell morphology (HCT-116 cells [2]; HCT-116, 3.26 mg/mL) | cancer cell morphology (HCT-116 cells [2]; HCT-116, 6.5 mg/mL) | comparison among the five conjugates in decreasing cancer cells proliferation (HCT-116 cells [1])
SiO2-3GPS-Imi [Conj. 5] | highly effective | profound effects | dose dependent effects | high levels of nucleus condensation and nuclear augmentation | strong nuclear condensation and augmentation and the beginning of cell membrane disruption and cell death | significant loss of cell population | –
SiO2-3GPS-Tri [Conj. 1] | highly effective | profound effects | dose dependent effects | strong nucleus condensation and nuclear augmentation | further nucleus condensation and augmentation | significant loss of cell population | –
SiO2-3GPS-Btri [Conj. 4] | highly effective | profound effects | dose dependent effects | disintegration of cancer cell bodies | strong nuclear condensation and augmentation | strong nuclear condensation and augmentation | more effective
SiO2-3GPS-Atri [Conj. 2] | highly effective | profound effects | dose dependent effects | strong nucleus condensation and nuclear augmentation | further nucleus condensation and augmentation | significant loss of cell population | –
SiO2-3GPS-Atet [Conj. 3] | highly effective | profound effects | dose dependent effects | significant levels of nucleus condensation and nuclear augmentation | nuclear condensation and augmentation of cancer cells | significant loss of cell population | more effective
